According to patent US7858790B2, “Modulators of muscarinic receptors” (Vertex Pharmaceuticals Incorporated, priority 2006, dated 2010):

Assays:
M4 muscarinic receptor = molecular target: T1, M4 muscarinic receptor (Homo sapiens, UniProt P08173); experiment: Functional mobilization of intracellular calcium (FLIPR) in CHO cells expressing M4 muscarinic receptor; format: cell-based; details: for M4 Activity: CHO cells expressing M4, calcium mobilization; for Emax: CHO, 100% efficacy is the maximum response obtained with the Carbachol control
T1 construct: expressed in transfected cells; host or cells: CHO (M4-CHO recombinant cell line)
T1 sequence (P08173 1-479): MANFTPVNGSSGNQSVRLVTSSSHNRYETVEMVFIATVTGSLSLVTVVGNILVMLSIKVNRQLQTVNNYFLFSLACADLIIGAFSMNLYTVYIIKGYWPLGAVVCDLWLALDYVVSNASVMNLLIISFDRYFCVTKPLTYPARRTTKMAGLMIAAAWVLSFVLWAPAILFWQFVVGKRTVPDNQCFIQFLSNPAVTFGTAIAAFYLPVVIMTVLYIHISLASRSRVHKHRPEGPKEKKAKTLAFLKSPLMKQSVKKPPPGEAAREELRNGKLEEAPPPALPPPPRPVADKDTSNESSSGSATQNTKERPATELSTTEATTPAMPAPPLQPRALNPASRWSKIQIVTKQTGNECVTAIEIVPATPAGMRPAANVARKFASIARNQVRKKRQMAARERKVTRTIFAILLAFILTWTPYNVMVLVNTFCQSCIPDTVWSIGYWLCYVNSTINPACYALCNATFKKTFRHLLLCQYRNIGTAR
How it was run: (§1)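 CHO cells loaded with Fluo-3 or Calcium 3 dye in pH 7.4 bath buffer with 1 mM probenecid, 0.5% DMSO. Agonist mode: compound added directly; inhibition mode: 15 min pre-incubation, then carbachol at EC80 (or co-application). Fluorescence recorded 60 s on FLIPR; efficacy relative to carbachol maximum.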

M1 muscarinic receptor = molecular target: T2, M1 muscarinic receptor (Homo sapiens, UniProt P11229); experiment: Functional mobilization of intracellular calcium (FLIPR) in CHO cells expressing M1 muscarinic receptor; format: cell-based; details: for M1 Activity: CHO cells expressing M1, calcium mobilization; for Emax: CHO, 100% efficacy is the maximum response obtained with the Carbachol control
T2 construct: expressed in transfected cells; host or cells: CHO (M1-CHO recombinant cell line)
T2 sequence (P11229 1-460): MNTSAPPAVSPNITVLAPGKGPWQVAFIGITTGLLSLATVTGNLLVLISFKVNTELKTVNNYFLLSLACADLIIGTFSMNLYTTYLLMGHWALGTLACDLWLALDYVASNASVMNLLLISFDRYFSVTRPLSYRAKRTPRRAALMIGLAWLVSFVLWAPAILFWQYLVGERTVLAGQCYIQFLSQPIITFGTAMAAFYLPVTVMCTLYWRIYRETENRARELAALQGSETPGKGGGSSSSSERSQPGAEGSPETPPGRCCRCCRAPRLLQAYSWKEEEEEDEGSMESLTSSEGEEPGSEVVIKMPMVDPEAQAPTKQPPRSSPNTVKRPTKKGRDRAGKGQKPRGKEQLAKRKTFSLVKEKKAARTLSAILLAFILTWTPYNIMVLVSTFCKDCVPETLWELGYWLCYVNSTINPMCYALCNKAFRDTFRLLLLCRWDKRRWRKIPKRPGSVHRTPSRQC
How it was run: as §1

O=C(NC1CC1)C1=CC2(CCN(CC3CC4C=CC3C4)CC2)c2ccccc21 (stereo not shown) [compound 32]
M4 Activity (M4 muscarinic receptor): +++ (activity was measured to be less than 2.0 μM)
Emax (M4 muscarinic receptor): 25 to 100%
M1 Activity (M1 muscarinic receptor): + (activity was measured to be greater than 10.0 μM)
Emax (M1 muscarinic receptor): 25 to 100%

CNC(=O)C1=CC2(CCN(CCCCSC)CC2)c2ccccc21 [compound 49]
M4 Activity (M4 muscarinic receptor): + (activity was measured to be greater than 10.0 μM)
Emax (M4 muscarinic receptor): < 25%
M1 Activity (M1 muscarinic receptor): + (activity was measured to be greater than 10.0 μM)
Emax (M1 muscarinic receptor): < 25%

N#CC1=CCC2(CCN(C3C[C@@H]4CC[C@@H]3C4)CC2)c2ccccc21 (stereo partly shown) [compound 35]
M4 Activity (M4 muscarinic receptor): ++ (activity was measured to be from 2.0 μM to 10.0 μM)
Emax (M4 muscarinic receptor): < 25%
M1 Activity (M1 muscarinic receptor): + (activity was measured to be greater than 10.0 μM)
Emax (M1 muscarinic receptor): < 25%

CCOC(=O)N1CCC(N2CCC3(CC=C(C#N)c4ccccc43)CC2)CC1 [compound 63]
M4 Activity (M4 muscarinic receptor): +++ (activity was measured to be less than 2.0 μM)
Emax (M4 muscarinic receptor): 25 to 100%
M1 Activity (M1 muscarinic receptor): +++ (activity was measured to be less than 2.0 μM)
Emax (M1 muscarinic receptor): 25 to 100%

CNC(=O)C1=CC2(CCN(CC3CC4C=CC3C4)CC2)c2ccccc21 (stereo not shown) [compound 69]
M4 Activity (M4 muscarinic receptor): +++ (activity was measured to be less than 2.0 μM)
Emax (M4 muscarinic receptor): 25 to 100%
M1 Activity (M1 muscarinic receptor): +++ (activity was measured to be less than 2.0 μM)
Emax (M1 muscarinic receptor): 25 to 100%

CNC(=O)C1=CC2(CCN(C3CCCCC3)CC2)c2ccccc21 [compound 58]
M4 Activity (M4 muscarinic receptor): +++ (activity was measured to be less than 2.0 μM)
Emax (M4 muscarinic receptor): 25 to 100%
M1 Activity (M1 muscarinic receptor): + (activity was measured to be greater than 10.0 μM)
Emax (M1 muscarinic receptor): 25 to 100%

CCC(CC)NC(=O)C1=CC2(CCN(C3CCN(C(=O)N4CCOCC4)CC3)CC2)c2ccccc21 [compound 18]
M4 Activity (M4 muscarinic receptor): + (activity was measured to be greater than 10.0 μM)
Emax (M4 muscarinic receptor): < 25%
M1 Activity (M1 muscarinic receptor): + (activity was measured to be greater than 10.0 μM)
Emax (M1 muscarinic receptor): < 25%

CN(C)C(=O)C1=CC2(CCN(CCC(C)(C)C)CC2)c2ccccc21 [compound 56]
M4 Activity (M4 muscarinic receptor): +++ (activity was measured to be less than 2.0 μM)
Emax (M4 muscarinic receptor): 25 to 100%
M1 Activity (M1 muscarinic receptor): + (activity was measured to be greater than 10.0 μM)
Emax (M1 muscarinic receptor): < 25%

CCOC(=O)N1CCC(N2CCC3(C=C(C(=O)N(C)C)c4ccccc43)CC2)CC1 [compound 60]
M4 Activity (M4 muscarinic receptor): +++ (activity was measured to be less than 2.0 μM)
Emax (M4 muscarinic receptor): 25 to 100%
M1 Activity (M1 muscarinic receptor): +++ (activity was measured to be less than 2.0 μM)
Emax (M1 muscarinic receptor): 25 to 100%

C=CCOC(=O)N1CCC(N2CCC3(C=C(C(=O)NC(CC)CC)c4ccccc43)CC2)CC1 [compound 24]
M4 Activity (M4 muscarinic receptor): ++ (activity was measured to be from 2.0 μM to 10.0 μM)
Emax (M4 muscarinic receptor): 25 to 100%
M1 Activity (M1 muscarinic receptor): + (activity was measured to be greater than 10.0 μM)
Emax (M1 muscarinic receptor): 25 to 100%

CCC(CC)NC(=O)C1=CC2(CCN(C3CCCCCC3)CC2)c2ccccc21 [Compound No. 3]
M4 Activity (M4 muscarinic receptor): ++ (activity was measured to be from 2.0 μM to 10.0 μM)
Emax (M4 muscarinic receptor): 25 to 100%
M1 Activity (M1 muscarinic receptor): + (activity was measured to be greater than 10.0 μM)
Emax (M1 muscarinic receptor): < 25%

CNC(=O)C1=CC2(CCN(CCC(C)C)CC2)c2ccccc21 [compound 15]
M4 Activity (M4 muscarinic receptor): +++ (activity was measured to be less than 2.0 μM)
Emax (M4 muscarinic receptor): 25 to 100%
M1 Activity (M1 muscarinic receptor): + (activity was measured to be greater than 10.0 μM)
Emax (M1 muscarinic receptor): 25 to 100%

CCC(CC)NC(=O)C1=CC2(CCN(C3CCCCC3)CC2)c2ccccc21 [compound 73]
M4 Activity (M4 muscarinic receptor): ++ (activity was measured to be from 2.0 μM to 10.0 μM)
Emax (M4 muscarinic receptor): 25 to 100%
M1 Activity (M1 muscarinic receptor): + (activity was measured to be greater than 10.0 μM)
Emax (M1 muscarinic receptor): < 25%
